Laboratory results reported in PubChem BioAssay (NCI).
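1) Cells in 96-well plates. 2) Compound, 48 h, 5 concentrations. 3) Linear interpolation between surrounding doses. 4) Unreached endpoint = highest concentration. GI50 is the concentration that inhibits growth by half. The concentration for full growth arrest is given as TGI.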

Columns and labels:
Assay in all cases: NCI-60 cell line screen, 48 h
MOLT-4 leukemia = test system: MOLT-4 leukemia
A549 NSCLC = test system: A549 NSCLC
LOX IMVI melanoma = test system: LOX IMVI melanoma
RPMI-8226 leukemia = test system: RPMI-8226 leukemia
SF-295 CNS = test system: SF-295 CNS
SF-539 CNS = test system: SF-539 CNS
786-0 renal = test system: 786-0 renal
SW-620 colon = test system: SW-620 colon
UACC-257 melanoma = test system: UACC-257 melanoma
NCI-H23 lung = test system: NCI-H23 lung
HS 578T breast = test system: HS 578T breast

| SMILES | TGI (MOLT-4 leukemia) [µM] | TGI (A549 NSCLC) [µM] | TGI (LOX IMVI melanoma) [µM] | TGI (RPMI-8226 leukemia) [µM] | TGI (SF-295 CNS) [µM] | TGI (SF-539 CNS) [µM] | TGI (786-0 renal) [µM] | TGI (SW-620 colon) [µM] | TGI (UACC-257 melanoma) [µM] | TGI (NCI-H23 lung) [µM] | TGI (HS 578T breast) [µM] | GI50 (MOLT-4 leukemia) [µM] | GI50 (LOX IMVI melanoma) [µM] | GI50 (SF-539 CNS) [µM] | GI50 (UACC-257 melanoma) [µM] | GI50 (NCI-H23 lung) [µM] | GI50 (SF-295 CNS) [µM] |
| --- | --- | --- | --- | --- | --- | --- | --- | --- | --- | --- | --- | --- | --- | --- | --- | --- | --- |
| CC1(C)C2CC3C(C)(C2)C31c1cc(Cl)ccc1N (stereo unspecified) | 22.7 | 24.2 | 30.5 | 30 | 28.6 | 32 | 28.6 | 28.2 | 26.4 | 26 | – | – | – | – | – | – | – |
| COc1ccc(C2N(c3ccc(C)c(N=C=O)c3)C(=O)N3C(c4ccc(OC)cc4)N(c4ccc(C)c(N=C=O)c4)C(=O)N23)cc1 (stereo unspecified) | > 100 | > 100 | > 100 | > 100 | > 100 | > 100 | > 100 | > 100 | > 100 | > 100 | – | – | – | – | – | – | – |
| Clc1ccc(C2SCc3nc4ccccc4n32)cc1 (stereo unspecified) | 56.1 | – | 40.6 | 44.1 | > 100 | 76.8 | – | > 100 | – | 48.3 | – | – | – | – | – | – | – |
| OC(CCN1CCN(CCOC(c2ccccc2)c2ccccc2)CC1)c1ccccc1 (stereo unspecified) | – | > 100 | 34.2 | – | 38.8 | 36.8 | 33.8 | > 100 | 34.8 | 63.1 | 45 | – | – | – | – | – | – |
| Cc1cc(N(CCC#N)CCC#N)ccc1/C(N=Nc1ccc(C(=O)O)cc1)=N\NC(=O)c1ccccc1 | > 100 | > 100 | – | > 100 | > 100 | 57 | > 100 | – | > 100 | > 100 | 55.5 | – | – | – | – | – | – |
| CC(=O)/C=C(/C)[O-].CC(=O)/C=C(/C)[O-].CC(=O)[CH-]C(C)=O.CC(=O)[CH-]C(C)=O.[Zr+4] | > 100 | – | > 100 | – | – | > 100 | – | – | > 100 | > 100 | – | > 100 | > 100 | > 100 | > 100 | > 100 | – |
| CCCN=C1NC(C)=CSC(Nc2ccccc2)=C1C#N | > 100 | > 100 | – | > 100 | > 100 | > 100 | > 100 | > 100 | – | > 100 | – | – | – | – | – | – | – |
| O=C1C(Cl)N(c2ccc([N+](=O)[O-])cc2)C1c1c[nH]c2ccccc12 (stereo unspecified) | > 100 | > 100 | – | > 100 | > 100 | > 100 | – | > 100 | > 100 | > 100 | – | – | – | – | – | – | – |
| CN(C)C(=O)N1N[C@H](c2ccccc2)[C@@H]1c1ccccc1 | > 100 | > 100 | > 100 | > 100 | > 100 | > 100 | > 100 | > 100 | > 100 | > 100 | – | – | – | – | – | – | – |
| CC1(C)CCC2=C(O1)c1ccccc1C(=Nc1ccc([N+](=O)[O-])cc1)C2=O | > 100 | 30 | > 100 | – | 29.9 | – | 34.1 | 29.6 | 30.1 | 52.9 | > 100 | – | 7.59 | – | – | 18.3 | 14.9 |
| CCN(CC)/N=C\c1c2ccccc2cc2ccccc12 | > 100 | > 100 | – | 77.1 | > 100 | > 100 | > 100 | > 100 | 72.4 | > 100 | > 100 | – | – | – | – | – | – |
| COC(=O)/C1=C/C=C\C[C@@]2(C)CC(c3ccoc3)OC(=O)[C@@H]2CC[C@H]1C (stereo partly specified) | > 25 | > 25 | > 25 | – | > 25 | > 25 | > 25 | > 25 | > 25 | > 25 | > 25 | – | – | – | – | – | – |
| O=C1CCCC1CC(CN1CCOCC1)Sc1nnnn1-c1ccccc1 (stereo unspecified) | > 100 | > 100 | > 100 | > 100 | > 100 | > 100 | > 100 | > 100 | > 100 | > 100 | – | – | – | – | – | – | – |
| COP(=O)(CP(=O)(OC)OCCC(C)CCC=C(C)C)OC (stereo unspecified) | > 100 | > 100 | > 100 | – | > 100 | > 100 | > 100 | > 100 | > 100 | > 100 | – | – | – | – | – | – | – |
| O=C1Sc2ccccc2C(=O)N2CCSC12 (stereo unspecified) | > 100 | – | > 100 | > 100 | > 100 | – | – | > 100 | > 100 | > 100 | – | – | – | – | – | – | – |
| O=c1c(O)c(-c2ccccc2)oc2c(CP(=O)(O)O)cccc12 | > 100 | > 100 | – | – | > 100 | > 100 | > 100 | – | > 100 | > 100 | – | – | – | – | – | – | – |
| COc1cc(C2c3cccc4cccc(c34)C3CCC(=O)N32)cc(OC)c1O (stereo unspecified) | > 50 | > 50 | – | > 50 | > 50 | > 50 | > 50 | > 50 | > 50 | > 50 | – | – | – | – | – | – | – |

| SMILES | TGI (MOLT-4 leukemia) [µM] | TGI (A549 NSCLC) [µM] | TGI (LOX IMVI melanoma) [µM] | TGI (RPMI-8226 leukemia) [µM] | TGI (SF-295 CNS) [µM] | TGI (SF-539 CNS) [µM] | TGI (786-0 renal) [µM] | TGI (SW-620 colon) [µM] | TGI (UACC-257 melanoma) [µM] | TGI (NCI-H23 lung) [µM] | TGI (HS 578T breast) [µM] | GI50 (MOLT-4 leukemia) [µM] | GI50 (LOX IMVI melanoma) [µM] | GI50 (SF-539 CNS) [µM] | GI50 (UACC-257 melanoma) [µM] | GI50 (NCI-H23 lung) [µM] | GI50 (SF-295 CNS) [µM] |
| --- | --- | --- | --- | --- | --- | --- | --- | --- | --- | --- | --- | --- | --- | --- | --- | --- | --- |
| NC1(c2cc3ccccc3s2)CCCCCC1 | 32.6 | 34.2 | 43 | – | 32.5 | 32.8 | 28.8 | 31.1 | 30.1 | 34 | – | – | – | – | – | – | – |
| CC1CN(c2cc3c(cc2F)c(=O)c(C(=O)O)cn3-c2ccc(N3CCN(C)CC3)cn2)CC(C)N1 (stereo unspecified) | > 100 | > 100 | – | > 100 | > 100 | > 100 | > 100 | > 100 | > 100 | > 100 | > 100 | – | – | – | – | – | – |
| CCCCCCc1ccc(CCCCCCCC(=O)O)o1 | 36.1 | > 100 | > 100 | > 100 | > 100 | > 100 | > 100 | > 100 | > 100 | > 100 | – | – | – | – | – | – | – |
| COc1cc2c3c(n(C)c(=O)c2cc1OC)-c1cc2c(cc1/C3=C\CCCCl)OCO2 | 43.2 | > 100 | > 100 | – | 99.2 | – | 40 | > 100 | > 100 | 40.9 | > 100 | – | – | – | – | – | – |
| N#CC1=C(O)NC(O)=C(C#N)C1c1c(Cl)cccc1Cl | > 100 | > 100 | 32 | > 100 | > 100 | 41.3 | – | > 100 | > 100 | > 100 | – | – | – | – | – | – | – |
| O=S(=O)(O)c1cc(S(=O)(=O)O)c2cc(N=Nc3ccc(N=Nc4ccc(/C=C/c5ccc(N=[N+]([O-])c6ccc(/C=C/c7ccc(N=Nc8ccc(N=Nc9ccc%10cc(S(=O)(=O)O)cc(S(=O)(=O)O)c%10c9)cc8)cc7S(=O)(=O)O)c(S(=O)(=O)O)c6)cc5S(=O)(=O)O)c(S(=O)(=O)O)c4)cc3)ccc2c1 | > 100 | > 100 | > 100 | > 100 | > 74.3 | > 100 | – | – | > 100 | > 100 | – | – | – | – | – | – | – |
| C=C1c2c(n(S(=O)(=O)c3ccccc3)c3ccccc23)[C@@]2(C(=O)OC)CC3C=CC2N1C3 | > 100 | > 100 | > 100 | > 100 | > 100 | > 100 | > 100 | > 100 | > 100 | > 100 | – | – | – | – | – | – | – |
| [N-]=[N+]=Nc1cc(=O)[nH]c2ccccc12 | > 100 | > 100 | – | > 100 | > 100 | > 100 | > 100 | > 100 | > 100 | > 100 | > 100 | – | – | – | – | – | – |
| CC1(C)CC(=O)c2c(N)n[nH]c2C1 | > 100 | > 100 | > 100 | > 100 | > 100 | > 100 | > 100 | > 100 | > 100 | > 100 | – | – | – | – | – | – | – |
| COC(=O)N[C@@H]1C[C@H]2CC[C@]1(O[Si](C(C)C)(C(C)C)C(C)C)C(=O)C2 | > 100 | 55.7 | – | 69.8 | 39.7 | – | 69 | > 100 | 38.4 | 39.3 | 31.5 | – | – | – | – | – | – |
| COC1(OC)CC(CO)(COc2cc(Cl)nc(N)n2)C1 | > 100 | > 100 | > 100 | – | > 100 | > 100 | > 100 | > 100 | > 100 | > 100 | > 100 | – | – | – | – | – | – |
| C=C(C)C1(Sc2ccc(OC)cc2)CC1 | 40.3 | > 100 | 33.4 | > 100 | 71 | > 100 | > 100 | > 100 | 55.7 | > 100 | – | – | – | – | – | – | – |
| O=C(O)c1cc(NCc2cc(O)ccc2O)ccc1O | – | > 100 | – | – | > 100 | > 100 | > 100 | 50.6 | > 100 | > 100 | > 100 | – | – | – | – | – | – |
| Oc1ccc(-c2nc3cc(C(F)(F)F)ccc3s2)cc1 | 87.5 | 29.7 | 26.6 | 35.4 | 28.2 | 34.2 | – | 40.2 | 32.2 | 30.5 | – | – | – | – | – | – | – |
| CC(C)OC1=C(CC2(C)OCCO2)C(=O)C12OCCO2 | > 100 | > 100 | > 100 | – | > 100 | > 100 | > 100 | > 100 | > 100 | > 100 | > 100 | – | – | – | – | – | – |
| CCOc1ccc2c(c1)C(/C(C(Cl)=C(Cl)Cl)=[N+](/[O-])OC(=O)c1ccccc1)=N2 | > 100 | > 100 | > 100 | – | > 100 | > 100 | > 100 | > 100 | > 100 | > 100 | > 100 | – | – | – | – | – | – |
